Target: MAPKAPK2 (Homo sapiens, UniProt P49137)
Test: HTS ATP-utilizing enzyme assay, off-chip mobility-shift (Caliper HTS 250)
Assay type: biochemical
Conditions: test compound 10 μM, kinase listed = active (greater than six-sigma from the mean activity of inactive compounds)
Excerpt: The following procedures describe the reagent and plate preparation for a HTS of an ATP-utilizing enzyme, such as a protein kinase, run in an off-chip mobility-shift assay format. The following provides an HTS protocol for running a protein kinase HTS screen on a Caliper HTS 250 microfluidics system. The following parameters are dependent on the protein kinase used and can be determined by one skilled in the art as part of a typical assay development process. For example, the peptide substrate used can be identified from the current literature, by screening a peptide library of potential protein kinase substrates, or by other applicable means accepted in the field.
The following table provides typical screen assay parameters appropriate for a Caliper HTS 250 microfluidics system.
The reagents and buffers listed in the following table are generally applicable for developing and running an HTS screen on a human protein kinase using the Caliper HTS 250 system.
The following reagents were prepared using the previously described buffers.
A 2× Master Buffer solution was prepared by combining 200 mL of 1 M HEPES, pH 7.5, 2 mL of 10% Triton X-100, 20 mL of 10% BSA, and 778 mL of H2O.
A TCB Buffer solution was prepared by combining 125 mL of 2× Master Buffer, 10 mL of 0.5 M EDTA, 6.25 mL of 4% coating reagent, 1.01 mL of 100% DMSO, and 107.74 mL H2O.
Assays to determine the kinase inhibitory activity of compounds of the present disclosure were performed using a Caliper HTS 250 microfluidics device, Greiner U-bottom assay plates, a Multidrop for transfer of reagents, and Biomek FX (AMNCBM03) software. Initially, 2.4 μL of a 1 mM solution of a test compound in 100% DMSO was added to a well of the Greiner U-bottom plate. A single Greiner U-bottom plate having 24×16 wells could include multiple test compounds. […] Using the Biomek FX, 10 μL of 0.5 M EDTA was added by the span-8 to wells, indicated as 100% Control and 2.4 μL of 100% DMSO was added by the span-8 to wells, indicated as 0% Control. […] The total reaction volume in each well was 25 μL, and the concentration of the test compound was 10 μM. The assay plate was incubated for 2.5 hrs at 20° C. to 22° C. […] The inhibition of the ATP-utilizing enzyme, such as a particular protein kinase, was determined by measuring the ratio of the peptide substrate to phosphorylated product for each well of the assay plate using the Caliper HTS 250 system.
The use of six-sigma statistical limits represents a conservative method for declaring potential hits among targets. The six-sigma activity, as well as the mean population activity, can be different for each target enzyme.

Chain of MAPKAPK2 (P49137 whole entry): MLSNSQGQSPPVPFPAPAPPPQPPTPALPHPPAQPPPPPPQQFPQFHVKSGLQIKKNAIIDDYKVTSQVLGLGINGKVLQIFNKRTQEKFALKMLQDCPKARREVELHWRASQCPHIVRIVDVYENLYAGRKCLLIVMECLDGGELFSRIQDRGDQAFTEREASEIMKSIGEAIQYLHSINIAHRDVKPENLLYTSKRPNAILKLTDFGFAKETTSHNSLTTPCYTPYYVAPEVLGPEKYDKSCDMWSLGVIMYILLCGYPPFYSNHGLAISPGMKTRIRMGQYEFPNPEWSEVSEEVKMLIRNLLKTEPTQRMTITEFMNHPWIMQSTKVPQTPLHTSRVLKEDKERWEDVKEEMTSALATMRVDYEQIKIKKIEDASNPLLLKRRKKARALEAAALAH

Activity, MAPKAPK2:
CN1CCN(c2ccc(Nc3ccnc4ccc(-c5ccc(C(F)(F)F)cc5C(F)(F)F)cc34)cc2)CC1 [6-(2,4-bis(trifluoromethyl)phenyl)-N-(4-(4-methylpiperazin-1-yl)phenyl)quinolin-4-amine]
CN1CCN(c2ccc(Nc3ccnc4ccc(-c5cc(Cl)ccc5Cl)cc34)cc2)CC1 [6-(2,5-dichlorophenyl)-N-(4-(4-methylpiperazin-1-yl)phenyl)quinolin-4-amine]
CN(C)Cc1ccccc1-c1ccc2nccc(Nc3ccc(N4CCN(C)CC4)cc3)c2c1 [6-(2-((dimethylamino)methyl)phenyl)-N-(4-(4-methylpiperazin-1-yl)phenyl)quinolin-4-amine]
CN(C)C1CCN(c2ccc(Nc3ccnc4ccc(-c5ccc(Cl)c(Cl)c5)cc34)cc2)C1 (stereo not drawn) [6-(3,4-dichlorophenyl)-N-(4-(3-(dimethylamino)pyrrolidin-1-yl)phenyl)quinolin-4-amine]
CN1CCN(c2ccc(Nc3ccnc4ccc(-c5cc(C(F)(F)F)cc(C(F)(F)F)c5)cc34)cc2)CC1 [6-(3,5-bis(trifluoromethyl)phenyl)-N-(4-(4-methylpiperazin-1-yl)phenyl)quinolin-4-amine]
CN(C)C1CCN(c2ccc(Nc3ccnc4ccc(-c5cccc(OCc6ccccc6)c5)cc34)cc2)C1 (stereo not drawn) [6-(3-(benzyloxy)phenyl)-N-(4-(3-(dimethylamino)pyrrolidin-1-yl)phenyl)quinolin-4-amine]
Cc1ccc(-c2ccc3nccc(Nc4ccc(N5CCC(N(C)C)C5)cc4)c3c2)cc1Cl (stereo not drawn) [6-(3-chloro-4-methylphenyl)-N-(4-(3-(dimethylamino)pyrrolidin-1-yl)phenyl)quinolin-4-amine]
CN(C)C1CCN(c2ccc(Nc3ccnc4ccc(-c5cccc(Cl)c5)cc34)cc2)C1 (stereo not drawn) [6-(3-chlorophenyl)-N-(4-(3-(dimethylamino)pyrrolidin-1-yl)phenyl)quinolin-4-amine]
CN(C)C1CCN(c2ccc(Nc3ccnc4ccc(-c5ccc6[nH]c(=O)sc6c5)cc34)cc2)C1 (stereo not drawn) [6-(4-(4-(3-(dimethylamino)pyrrolidin-1-yl)phenylamino)quinolin-6-yl)benzo[d]thiazol-2(3H)-one]
CCN(CC)c1ccc(-c2ccc3nccc(Nc4ccc(N5CCC(N(C)C)C5)cc4)c3c2)cc1 (stereo not drawn) [6-(4-(diethylamino)phenyl)-N-(4-(3-(dimethylamino)pyrrolidin-1-yl)phenyl)quinolin-4-amine]
CN(C)C1CCN(c2ccc(Nc3ccnc4ccc(-c5ccc(OC(F)F)cc5)cc34)cc2)C1 (stereo not drawn) [6-(4-(difluoromethoxy)phenyl)-N-(4-(3-(dimethylamino)pyrrolidin-1-yl)phenyl)quinolin-4-amine]
CN(C)C1CCN(c2ccc(Nc3ccnc4ccc(-c5ccc(Cl)c(F)c5)cc34)cc2)C1 (stereo not drawn) [6-(4-chloro-3-fluorophenyl)-N-(4-(3-(dimethylamino)pyrrolidin-1-yl)phenyl)quinolin-4-amine]
COc1cc(-c2ccc3nccc(Nc4ccc(N5CCC(N(C)C)C5)cc4)c3c2)ccc1Cl (stereo not drawn) [6-(4-chloro-3-methoxyphenyl)-N-(4-(3-(dimethylamino)pyrrolidin-1-yl)phenyl)quinolin-4-amine]
Cc1cc(-c2ccc3nccc(Nc4ccc(N5CCC(N(C)C)C5)cc4)c3c2)ccc1Cl (stereo not drawn) [6-(4-chloro-3-methylphenyl)-N-(4-(3-(dimethylamino)pyrrolidin-1-yl)phenyl)quinolin-4-amine]
CN1CCN(c2ccc(Oc3ccnc4ccc(-c5ccc(Cl)cc5)cc34)cc2)CC1 [6-(4-chlorophenyl)-4-(4-(4-methylpiperazin-1-yl)phenoxy)quinoline]
CCN(CC)C1CCN(c2ccc(Nc3ccnc4ccc(-c5ccc(Cl)cc5)cc34)cc2)C1 (stereo not drawn) [6-(4-chlorophenyl)-N-(4-(3-(diethylamino)pyrrolidin-1-yl)phenyl)quinolin-4-amine]
CN(C)C1CCN(c2ccc(Nc3ccnc4ccc(-c5ccc(Cl)cc5)cc34)cc2)C1 (stereo not drawn) [6-(4-chlorophenyl)-N-(4-(3-(dimethylamino)pyrrolidin-1-yl)phenyl)quinolin-4-amine]
CN1CCN(c2ccc(Nc3ccnc4ccc(-c5ccc(Cl)cc5)cc34)cn2)CC1 [6-(4-chlorophenyl)-N-(6-(4-methylpiperazin-1-yl)pyridin-3-yl)quinolin-4-amine]
CCCN(c1ccc(N2CCN(C)CC2)cc1)c1ccnc2ccc(-c3ccc(OC)cc3)cc12 [6-(4-methoxyphenyl)-N-(4-(4-methylpiperazin-1-yl)phenyl)-N-propylquinolin-4-amine]
CCCN1CCN(c2ccc(Nc3ccnc4ccc(-c5ccc(OC)cc5)cc34)cc2)CC1 [6-(4-methoxyphenyl)-N-(4-(4-propylpiperazin-1-yl)phenyl)quinolin-4-amine]
CN1CCN(c2ccc(Nc3ccnc4ccc(-c5ccc(Cl)s5)cc34)cc2)CC1 [6-(5-chlorothiophen-2-yl)-N-(4-(4-methylpiperazin-1-yl)phenyl)quinolin-4-amine]
Cc1cc(-c2ccc3nccc(Nc4ccc(N5CCC(N(C)C)C5)cc4)c3c2)cnc1Cl (stereo not drawn) [6-(6-chloro-5-methylpyridin-3-yl)-N-(4-(3-(dimethylamino)pyrrolidin-1-yl)phenyl)quinolin-4-amine]
CN(C)C1CCN(c2ccc(Nc3ccnc4ccc(-c5ccc(Cl)nc5)cc34)cc2)C1 (stereo not drawn) [6-(6-chloropyridin-3-yl)-N-(4-(3-(dimethylamino)pyrrolidin-1-yl)phenyl)quinolin-4-amine]
CN(C)C1CCN(c2ccc(Nc3ccnc4ccc(-c5csc6ccccc56)cc34)cc2)C1 (stereo not drawn) [6-(benzo[b]thiophen-3-yl)-N-(4-(3-(dimethylamino)pyrrolidin-1-yl)phenyl)quinolin-4-amine]
CN(C)C1CCN(c2ccc(Nc3ccnc4ccc(-c5ccc6c(c5)OCO6)cc34)cc2)C1 (stereo not drawn) [6-(benzo[d][1,3]dioxol-5-yl)-N-(4-(3-(dimethylamino)pyrrolidin-1-yl)phenyl)quinolin-4-amine]
CN(C)[C@@H]1CCN(c2ccc(Nc3ccnc4ccc(-c5ccc(C#N)cc5)cc34)cc2)C1 [(R)-4-(4-(4-(3-(dimethylamino)pyrrolidin-1-yl)phenylamino)quinolin-6-yl)benzonitrile]
CN(C)[C@@H]1CCN(c2ccc(Nc3ccnc4ccc(-c5ccc(Cl)cc5)cc34)cc2)C1 [(R)-6-(4-chlorophenyl)-N-(4-(3-(dimethylamino)pyrrolidin-1-yl)phenyl)quinolin-4-amine]
CN(C)[C@@H]1CCN(c2ccc(Nc3ccnc4ccc(-c5ccc6ccccc6c5)cc34)cc2)C1 [(R)-N-(4-(3-(dimethylamino)pyrrolidin-1-yl)phenyl)-6-(naphthalen-2-yl)quinolin-4-amine]
CN(C)[C@H]1CCN(c2ccc(Nc3ccnc4ccc(-c5ccc(C#N)cc5)cc34)cc2)C1 [(S)-4-(4-(4-(3-(dimethylamino)pyrrolidin-1-yl)phenylamino)quinolin-6-yl)benzonitrile]
CN(C)[C@H]1CCN(c2ccc(Nc3ccnc4ccc(-c5ccc(Cl)cc5)cc34)cc2)C1 [(S)-6-(4-chlorophenyl)-N-(4-(3-(dimethylamino)pyrrolidin-1-yl)phenyl)quinolin-4-amine]
CN(C)[C@H]1CCN(c2ccc(Nc3ccnc4ccc(-c5ccc6ccccc6c5)cc34)cc2)C1 [(S)-N-(4-(3-(dimethylamino)pyrrolidin-1-yl)phenyl)-6-(naphthalen-2-yl)quinolin-4-amine]
CN1CCC(N(C)c2ccc(Nc3ccnc4ccc(-c5cnc6ccccc6c5)cc34)cc2)C1 (stereo not drawn) [N1-(3,6′-biquinolin-4′-yl)-N4-methyl-N4-(1-methylpyrrolidin-3-yl)benzene-1,4-diamine]
Cc1ccc(-c2ccc3nccc(Nc4ccc(N(C)C5CCN(C)C5)cc4)c3c2)nc1 (stereo not drawn) [N1-methyl-N4-(6-(5-methylpyridin-2-yl)quinolin-4-yl)-N1-(1-methylpyrrolidin-3-yl)benzene-1,4-diamine]

Source: US7452887B2, “Quinoline- and isoquinoline-based compounds exhibiting ATP-utilizing enzyme inhibitory activity, and compositions, and uses thereof” (Amphora Discovery Corporation, priority 2004, dated 2008)
